Test results as given in patent US20110053883A1, “AGENT THAT MODULATES PHYSIOLOGICAL CONDITION OF PESTS, INVOLVED IN INSECT C-JUN AMINO-TERMINAL KINASE ACTIVITY” (SUMITOMO CHEMICAL COMPANY, LIMITED, priority 2005, published 2011).
Where two headings read alike, the source gives them in different places.

How the values were obtained:
[1] = biological target: aphid c-Jun NH2-terminal kinase (Aphis gossypii, UniProt A0A9P0JGV4); assay: In vitro aphid c-Jun NH2-terminal kinase activity measurement (IMAP fluorescence polarization, peptide substrate); assay type: biochemical, cotton aphid (Aphis gossypii); settings: for inhibition at 10 µM: test compound at final concentration of 10 μM, relative to DMSO, read-out: Activity of inhibiting c-Jun NH2-terminal kinase activity (inhibition degree (%) at 10 μM addition); for IC50: concentrations 100 μM to 0.03 μM, XLfit, read-out: Activity of inhibiting c-Jun NH2-terminal kinase activity (IC50, (μM))
Sequence of aphid c-Jun NH2-terminal kinase (A0A9P0JGV4 entry or part of it): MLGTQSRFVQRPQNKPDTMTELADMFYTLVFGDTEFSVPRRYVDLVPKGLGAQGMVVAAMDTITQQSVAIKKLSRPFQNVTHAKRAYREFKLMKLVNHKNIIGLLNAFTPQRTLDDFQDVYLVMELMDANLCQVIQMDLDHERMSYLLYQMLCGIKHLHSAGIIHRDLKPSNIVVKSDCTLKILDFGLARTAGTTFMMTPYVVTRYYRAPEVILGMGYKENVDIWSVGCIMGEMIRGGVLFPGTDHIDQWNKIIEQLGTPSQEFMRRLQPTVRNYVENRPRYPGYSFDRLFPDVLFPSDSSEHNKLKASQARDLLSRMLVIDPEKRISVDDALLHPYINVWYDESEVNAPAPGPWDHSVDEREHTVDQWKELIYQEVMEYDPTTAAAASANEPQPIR
Procedure: Selection of a compound which modulates the activity of a c-Jun NH2-terminal kinase was performed in a system where the activity of a c-Jun NH2-terminal kinase which is modulated by adding a test compound to an in vitro reaction system using the aphid c-Jun NH2-terminal kinase prepared in Example 7 is measured and evaluated.
Measurement of the activity of the aphid c-Jun NH2-terminal kinase was performed using IMAP screening Express Kit with progressive Binding system (manufactured by Molecular Device) according to a method described in the manual annexed to the system and employing, as a substrate, a peptide comprising the amino acid sequence of SEQ ID NO: 13 to which biotin was added at the amino-terminus, and a peptide comprising the amino acid sequence of SEQ ID NO: 14 in which the carboxyl-terminus was fluorescently labeled.
For measuring the activity, the activity of the aphid c-Jun NH2-terminal kinase was measured when a test compound dissolved in DMSO was contained to a final concentration of 10 μM. In addition, the activity of the aphid c-Jun NH2-terminal kinase was measured when DMSO was contained in place of a test compound. Then, a ratio (%) of a measured value of the activity of the aphid c-Jun NH2-terminal kinase when a test compound dissolved in DMSO was contained, relative to a measured value of the activity of aphid c-Jun NH2-terminal kinase when DMSO was contained in place of the test compound was calculated, and a value obtained by subtracting the calculated value from 100% was adopted as an inhibition degree (%). Results in each test compound are shown in Table 4 in Example 9 together with results of Example 9.
The activity of aphid c-Jun NH2-terminal kinase was measured when a test compound dissolved in DMSO was contained to a final concentration of each concentration of 100 μM, 30 μM, 10 μM, 3 μM, 1 μM, 0.3 μM, 0.1 μM or 0.03 μM. IC50 (μM) was calculated from the result of each concentration at each test compound using a concentration-dependent test analyzing software XL fit (manufactured by idbs). Results are shown in Table 5 in Example 10 together with results of Example 9.

[2] = system: Aphis gossypii; assay: Pesticidal activity test, rearing on artificial feed containing the test compound; assay type: in vivo; settings: 144 h, read-out: Determination result of pesticidal activity; for pest or weed control at 50 ppm: test compound in DMSO to a final concentration of 50 ppm
Procedure: A sterilized artificial feed having the following composition (Table 3) was prepared. Then, according to the same manner as that of the method described in Handbook of Insect Rearing Vol. 1 (Elsevier Science Publishers 1985) pp. 35 to pp. 36 except that a test compound dissolved in DMSO to a final concentration of 640 μM was added at 0.5 volume of the artificial feed, and components were mixed, Aphis gossypii was reared. […] Controlling value(%)={1−(Cb×Tai)/(Cai×Tb)}×100 Letters in the equation represent the following meanings. Cb: Number of surviving worms before treatment in non-treated section Cai: Number of surviving worms at observation in non-treated section Tb: Number of surviving worms before treatment in treated section Tai: Number of surviving worms at observation in treated section […]

[3] = test compound in DMSO to a final concentration of 640 μM, in artificial feed, surviving Aphis gossypii six days after rearing
[4] = in artificial feed, surviving Aphis gossypii six days after rearing

SMILES	inhibition at 10 µM [1] [%]	pest or weed control at 640 µM ([2]; Aphis gossypii) [%]	pest or weed control at 640 µM [2, 3] [%]	IC50 [1] [µM]	pest or weed control at 50 ppm [2, 4] [%]
CC(C)(C)n1nc(-c2cccc3ccccc23)c2c(N)ncnc21 [4-amino-1-tert-butyl-3-(1-naphthyl) pyrazolo(3,4-d) pyrimidine, reference compound]	68	> 30	–	–	–
O=C1c2ccccc2-c2n[nH]c3cccc1c23 [Anthra[1,9-CD] pyrazole-6(2H)-one, reference compound]	83	–	> 30	–	–
O=C1NC(=O)C(c2c[nH]c3ccccc23)=C1c1c[nH]c2ccccc12 [Arcyriarubin A, reference compound]	73	–	> 30	–	–
O=C1CC2(Oc3ccccc3O2)C(=O)O1 [DB04029]	–	–	–	> 100	< 30
OCC1OC(n2cnc3c(O)ncnc32)C(O)C1O (stereo not shown) [DC05429]	–	–	–	> 100	< 30
Sc1ncnc2nc[nH]c12 [DD08068]	–	–	–	> 100	< 30
COc1ccc(C(=O)c2ccccc2)c(O)c1 [DD08100]	–	–	–	> 100	< 30
CCOC(=O)/C(=C(/F)SCC(C)=O)C(F)(F)F [DF06524]	–	–	–	47.9	> 30
